Assay results published in ChEMBL document CHEMBL1687869, “Cycloartane triterpenes isolated from Combretum quadrangulare in a screening program for death-receptor expression enhancing activity” (2011).
Activity calls are given as the source filed them. The calls are words filed in the database; no cut-off is given here.

What was measured:
[1] = target: Tumor necrosis factor receptor superfamily member 10B (Homo sapiens) (UniProt O14763); test: Increase in DR5 promoter activity in SacI gene expressing human DLD1 cells at 17.5 uM after 24 hrs by luciferase reporter gene assay relative to control; format: cell-based; conditions: DLD-1
AGS [2] = test: Cytotoxicity against TRAIL-resistant human AGS cells assessed as cell viability at 17.5 uM after 24 hrs by fluorometric microculture assay; format: functional; conditions: read-out: Activity
[3] = target: Tumor necrosis factor receptor superfamily member 10B (Homo sapiens) (UniProt O14763); test: Increase in DR5 promoter activity in SacI gene expressing human DLD1 cells at 17.5 to 70 uM after 24 hrs by luciferase reporter gene assay relative to control; format: cell-based; conditions: DLD-1
AGS [4] = test: Cytotoxicity against TRAIL-resistant human AGS cells assessed as cell viability at 12.5 uM after 24 hrs by fluorometric microculture assay in presence of 100 ng/ml TRAIL; format: functional
AGS [5] = test: Cytotoxicity against TRAIL-resistant human AGS cells assessed as cell viability at 17.5 uM after 24 hrs by fluorometric microculture assay in presence of 100 ng/ml TRAIL; format: functional

Tumor necrosis factor receptor superfamily member 10B (Homo sapiens), sequence (O14763 whole entry): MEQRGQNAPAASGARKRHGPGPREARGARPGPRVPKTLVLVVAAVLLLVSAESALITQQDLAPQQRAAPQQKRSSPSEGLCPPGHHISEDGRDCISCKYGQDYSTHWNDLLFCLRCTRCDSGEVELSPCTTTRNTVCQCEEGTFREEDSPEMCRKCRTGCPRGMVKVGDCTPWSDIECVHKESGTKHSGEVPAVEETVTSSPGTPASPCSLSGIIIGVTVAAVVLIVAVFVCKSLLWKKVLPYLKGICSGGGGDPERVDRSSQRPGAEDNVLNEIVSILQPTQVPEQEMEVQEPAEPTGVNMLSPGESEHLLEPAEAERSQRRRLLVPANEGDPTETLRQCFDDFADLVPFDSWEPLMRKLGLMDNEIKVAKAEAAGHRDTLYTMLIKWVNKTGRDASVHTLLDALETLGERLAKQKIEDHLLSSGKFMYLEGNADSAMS

With `O=c1cc(-c2ccc(O)c(O)c2)oc2cc(O)cc(O)c12` [LUTEOLIN] the Activity [1] was “Active” and the viability at 17.5 µM (AGS [2]) was 51%.
`COC(C)(C)/C=C/C[C@@H](C)[C@H]1CC[C@@]2(C)[C@@H]3[C@@H](O)C[C@H]4C(C)(C)C(=O)CC[C@@]45C[C@@]35CC[C@]12C` gave a fold change (FC) [3] of 2.5.
Work on `COc1ccc(-c2oc3cc(O)cc(O)c3c(=O)c2OC)cc1O` yielded a fold change (FC) [3] of 6.7, an Activity (AGS [4]) of 27% and an Activity (AGS [5]) of 24%.
`C=C(C)[C@@H](O)CC[C@@H](C)[C@H]1CC[C@@]2(C)[C@@H]3[C@@H](OC(C)=O)C[C@H]4[C@](C)(C(=O)O)[C@@H](O)CC[C@@]45C[C@@]35CC[C@]12C` was tested, and the fold change (FC) [3] was 1.7.
`COc1cc(-c2oc3cc(O)cc(O)c3c(=O)c2OC)cc(O)c1OC` gave a fold change (FC) [3] of 2.2.
With `COc1c(O)cc(-c2oc3cc(O)cc(O)c3c(=O)c2OC)cc1O` the fold change (FC) [3] was 2.
